Data reported in patent US20120213720A1, “Prodrug composition for skin with twin protecting groups bound by disubstituted benzene” (priority 2011, published 2012).

What was measured:
[1] = test system: facial freckles and the normal facial skin; assay: Clinical test of whitening effect of DAP-containing cream, smart skin analysis system; type: in vivo
Procedure: Moreover, for proving the whitening effect of the DAP-containing prescription according to the present invention, a clinical test was performed and used the detection device shown in Table 7. Six subjects joining the test received the cream preparation containing 1% or 2% DAP on facial freckles and the normal facial skin twice a day for consecutive […] (2010 Nov. 24-2010 Dec. 15), and the whitening effect was evaluated. [table] According to the foregoing clinical test, data graphs with respect to the disclosed prodrug composition as shown in FIG. 2 through FIG. 7 have been made, while the photographs showing the tested sites of several subjects are reflected in FIG. 8 through FIG.

melanocytes in the skin = conditions: cited from earlier work
skin = conditions: cited from earlier work
melanin synthesis = conditions: cited from earlier work

For c1cc(OC2CCCCO2)ccc1OC1CCCCO1 (centres unmarked) [DAP, 1,4-bis(tetrahydro-2H-pyran-2-yloxy)benzene], the “side effects (toxic to melanocytes, irritative, allergenic to the skin)” value ([1]; four-week clinical test, 1% or 2% DAP cream twice a day) was “without side effects”, the “whitening effect on the normal skin” value ([1]; prescription containing 1% DAP, consecutive four weeks, left cheek) was “up to 19%” and the “whitening effect on the solar lentigines” value ([1]; prescription containing 2% DAP, consecutive four weeks, left cheek) was “up to 46%”.

For Oc1ccc(OC2CCCCO2)cc1 (centres unmarked) [DA, deoxy-arbutin], the “safety concentration relative to HQ” value (melanocytes in the skin) is given as “four times higher”, the “time to desired clinical effects” value (skin; DA solutions with proper concentration) is given as “three weeks” and the “effect of whitening the skin” value (skin; local usage, clinical research for 8 weeks) is given as “progressive and apparent effect of whitening the skin”. The “anti-melanin effect, times higher than that of HQ” value (melanin synthesis; relative to HQ) was 10 times and the “anti-melanin effect, times higher than that of normal arbutin” value (melanin synthesis; relative to normal arbutin) was 350 times.
